We go through two substances from patent US6383812B1, “Anti liver disease drug R-YEEE and method of synthesizing branched galactose-terminal glycoproteins” (Academia Sinica, priority 1999, dated 2002).

Assay [1] addresses T1, asialoglycoprotein receptor (ASGPr) (Homo sapiens, UniProt P07306+P07307).
T1 sequence (P07306 1-291): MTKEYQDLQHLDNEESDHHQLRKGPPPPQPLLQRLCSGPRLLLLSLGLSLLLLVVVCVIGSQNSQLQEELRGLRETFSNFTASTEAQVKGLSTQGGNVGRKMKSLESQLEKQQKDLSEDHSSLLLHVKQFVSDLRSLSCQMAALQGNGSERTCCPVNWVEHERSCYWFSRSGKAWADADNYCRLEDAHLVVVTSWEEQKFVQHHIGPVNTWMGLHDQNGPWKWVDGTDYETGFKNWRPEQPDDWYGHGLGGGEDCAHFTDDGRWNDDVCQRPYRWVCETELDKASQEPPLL
T1 sequence (P07307 1-311): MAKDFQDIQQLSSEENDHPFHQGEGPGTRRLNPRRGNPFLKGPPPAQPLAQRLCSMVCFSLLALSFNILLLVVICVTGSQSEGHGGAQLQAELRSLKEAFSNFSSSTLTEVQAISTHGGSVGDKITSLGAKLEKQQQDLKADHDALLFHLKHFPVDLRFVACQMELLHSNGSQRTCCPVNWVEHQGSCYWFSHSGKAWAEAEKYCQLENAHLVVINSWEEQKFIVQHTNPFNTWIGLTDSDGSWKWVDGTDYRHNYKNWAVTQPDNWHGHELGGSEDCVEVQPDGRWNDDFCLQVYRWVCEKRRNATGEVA
In words: Affinity of synthetic ligand to the asialoglycoprotein receptor. The assay is classed as binding. The conditions noted are these: relative to YEE(GalNAcAH)3; no method described.

The target of assay [2] is T1, asialoglycoprotein receptor (ASGPr). The conditions noted are these: reported by Lee et al., Glycoconjugate J., 1987; cited from earlier work.

As for “tris-(N-acetylgalactosamine aminohexyl)glycoside of tyrosyl(glutamyl)2 glutamate [YEEE(GalNAcAH)3]”, in assay [1], the “affinity to asialoglycoprotein receptors” value is listed as “comparable to YEE(GalNAcAH)3”.
As for “tris-(N-acetylgalactosamine aminohexyl)glycoside of tyrosyl(glutamyl)glutamate [YEE(GalNAcAH)3]”, the “affinity to the ASGP-r” value in assay [2] is reported as “subnanomolar”.
